Results on 14 molecules are retold here after article PMC9234962, “Optimization of Peptide Linker-Based Fluorescent Ligands for the Histamine H1 Receptor” (Journal of Medicinal Chemistry, 2022).

The target of assay [1] is T1, Nluc-H1R (Homo sapiens, UniProt P35367). The assay can be described thus: NanoBRET competition binding assay (displacement of 1) on Nluc-H1R expressing HEK293T cells. The note with it: for Ki / pKi: displacement of 1 (25 nM, KD = 8 nM), whole HEK293T cells, Cheng–Prusoff; for pKi: mean ± SEM, three experiments; for pKi/pKD (H1R): supplementary CSV, unlabeled congeners (pKi). Background: Bioluminescence resonance energy transfer reports proximity on the nanometre scale.

The target of assay [2] is T1, Nluc-H1R. Kind of assay: NanoBRET saturation binding assay on Nluc-H1R expressing HEK293T cells. Set-up: expressed in transfected cells. The following applies: saturation binding curves, whole HEK293T cells; for pKD: non-specific with 10 μM mepyramine, mean ± SEM. The text has this:
Total and non-specific saturation binding curves from NanoBRET saturation binding assay were fitted simultaneously using eq 1: [drawing 4] 1 where Bmax is the maximal specific binding, [B] is the concentration of fluorescent ligand in nM, KD is the equilibrium dissociation constant in nM, M is the slope of the non-specific component, and C is the intercept with the Y axis.

Square brackets hold non-standard residues; d marks the D form. Peptide text beside a SMILES is read from it. * marks the point of attachment. Propanoyl(3-Pip(4-O-2-BnPh)) = O=C(CCN1CCC(Oc2ccccc2Cc2ccccc2)CC1)*

T1 sequence (P35367 whole entry): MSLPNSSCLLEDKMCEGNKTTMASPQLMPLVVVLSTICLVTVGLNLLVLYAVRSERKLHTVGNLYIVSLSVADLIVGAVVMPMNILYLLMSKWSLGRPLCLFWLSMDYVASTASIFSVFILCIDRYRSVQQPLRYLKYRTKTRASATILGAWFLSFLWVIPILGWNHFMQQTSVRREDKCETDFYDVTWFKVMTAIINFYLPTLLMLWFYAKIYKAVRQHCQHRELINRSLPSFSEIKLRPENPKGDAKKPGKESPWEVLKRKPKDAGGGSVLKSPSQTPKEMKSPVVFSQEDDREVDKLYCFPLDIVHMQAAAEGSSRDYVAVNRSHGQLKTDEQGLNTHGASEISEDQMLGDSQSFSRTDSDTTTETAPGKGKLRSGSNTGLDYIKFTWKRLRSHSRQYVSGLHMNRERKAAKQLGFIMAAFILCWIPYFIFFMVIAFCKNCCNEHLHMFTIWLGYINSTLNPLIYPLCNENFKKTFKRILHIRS

In the case of `CC(C)[C@H](NC(=O)CCN1CCC(Oc2ccccc2Cc2ccccc2)CC1)C(=O)N[C@@H](CO)C(=O)N[C@@H](CO)C(=O)N[C@H](Cc1ccccc1)C(N)=O` [Compound 10e, (S)-N-((S)-1-(((S)-1-(((R)-1-Amino-1-oxo-3-phenylpropan-2-yl)amino)-3-hydroxy-1-oxopropan-2-yl)amino)-3-hydroxy-1-oxopropan-2-yl)-2-(3-(4-(2-benzylphenoxy)piperidin-1-yl)propanamido)-3-methylbutanamide] ({Propanoyl(3-Pip(4-O-2-BnPh))}-VSS[dF]-NH2), on Nluc-H1R [1], the Ki (as a rule, the dissociation constant of the complex between target and ligand, obtained from inhibition or displacement) turned out to be 339 nM; the pKi (commonly −log10 of the Ki, conventionally taken in molar units) is recorded as 6.47 ± 0.03.

`CC(C)[C@H](NC(=O)CCN1CCC(Oc2ccccc2Cc2ccccc2)CC1)C(=O)N[C@@H](CO)C(=O)N[C@@H](CC(N)=O)C(=O)N[C@H](Cc1ccccc1)C(N)=O` [Compound 10f, (S)-N1-((R)-1-Amino-1-oxo-3-phenylpropan-2-yl)-2-((S)-2-((S)-2-(3-(4-(2-benzylphenoxy)piperidin-1-yl)propanamido)-3-methylbutanamido)-3-hydroxypropanamido)succinamide] ({Propanoyl(3-Pip(4-O-2-BnPh))}-VSN[dF]-NH2): at Nluc-H1R [1], the Ki worked out at 95 nM and the pKi stood at 7.02 ± 0.08.

At Nluc-H1R [1], `CC(C)[C@H](NC(=O)CCN1CCC(Oc2ccccc2Cc2ccccc2)CC1)C(=O)N[C@@H](CO)C(=O)N[C@@H](Cc1cnc[nH]1)C(=O)N[C@H](Cc1ccccc1)C(N)=O` [Compound 10g, (S)-N-((S)-1-(((S)-1-(((R)-1-Amino-1-oxo-3-phenylpropan-2-yl)amino)-3-(1H-imidazol-4-yl)-1-oxopropan-2-yl)amino)-3-hydroxy-1-oxopropan-2-yl)-2-(3-(4-(2-benzylphenoxy)piperidin-1-yl)propanamido)-3-methylbutanamide] ({Propanoyl(3-Pip(4-O-2-BnPh))}-VSH[dF]-NH2) displayed an inhibition constant Ki of 126 nM and a negative logarithm of the Ki (pKi) of 6.90 ± 0.04.

On Nluc-H1R [1], `CC(C)[C@H](NC(=O)CCN1CCC(Oc2ccccc2Cc2ccccc2)CC1)C(=O)N[C@@H](CO)C(=O)N[C@@H](CCCCN)C(=O)N[C@H](Cc1ccccc1)C(N)=O` [Compound 10h, (S)-6-Amino-N-((R)-1-amino-1-oxo-3-phenylpropan-2-yl)-2-((S)-2-((S)-2-(3-(4-(2-benzylphenoxy)piperidin-1-yl)propanamido)-3-methylbutanamido)-3-hydroxypropanamido)hexanamide] ({Propanoyl(3-Pip(4-O-2-BnPh))}-VSK[dF]-NH2) came in with a Ki of 186 nM and a pKi of 6.73 ± 0.05.

On Nluc-H1R [1], `CC(C)[C@H](NC(=O)CCN1CCC(Oc2ccccc2Cc2ccccc2)CC1)C(=O)N[C@@H](CO)C(=O)N[C@@H](CC(=O)O)C(=O)N[C@H](Cc1ccccc1)C(N)=O` [Compound 10i, (S)-4-(((R)-1-Amino-1-oxo-3-phenylpropan-2-yl)amino)-3-((S)-2-((S)-2-(3-(4-(2-benzylphenoxy)piperidin-1-yl)propanamido)-3-methylbutanamido)-3-hydroxypropanamido)-4-oxobutanoic Acid] ({Propanoyl(3-Pip(4-O-2-BnPh))}-VSD[dF]-NH2) displayed a Ki of 174 nM and a pKi of 6.76 ± 0.04.

For the molecule `CC(C)[C@H](NC(=O)CCN1CCC(Oc2ccccc2Cc2ccccc2)CC1)C(=O)N[C@@H](CO)C(=O)N[C@@H](CC(N)=O)C(=O)N[C@@H](Cn1cc(COc2ccc(/C=C/C3=[N+]4C(=Cc5ccc(-c6cccs6)n5[B-]4(F)F)C=C3)cc2)nn1)C(N)=O` [Compound 22a, (S)-N1-((S)-1-Amino-3-(4-((4-((E)-2-(5,5-difluoro-7-(thiophen-2-yl)-5H-5λ^4,6λ^4-dipyrrolo[1,2-c:2’,1’-f][1,3,2]diazaborinin-3-yl)vinyl)phenoxy)methyl)-1H-1,2,3-triazol-1-yl)-1-oxopropan-2-yl)-2-((S)-2-((S)-2-(3-(4-(2-benzylphenoxy)piperidin-1-yl)propanamido)-3-methylbutanamido)-3-hydroxypropanamido)succinamide], at Nluc-H1R [2], binding was put at a Kd of 28 nM and the pKD (usually the KD on a negative log10 scale, so that one unit is a factor of ten) is given as 7.55 ± 0.07.

`C[C@H](NC(=O)CCN1CCC(Oc2ccccc2Cc2ccccc2)CC1)C(=O)N[C@@H](C)C(=O)N[C@@H](C)C(=O)N[C@@H](Cn1cc(COc2ccc(/C=C/C3=[N+]4C(=Cc5ccc(-c6cccs6)n5[B-]4(F)F)C=C3)cc2)nn1)C(N)=O` [Compound 22b, (S)-N-((S)-1-Amino-3-(4-((4-((E)-2-(5,5-difluoro-7-(thiophen-2-yl)-5H-5λ^4,6λ^4-dipyrrolo[1,2-c:2’,1’-f][1,3,2]diazaborinin-3-yl)vinyl)phenoxy)methyl)-1H-1,2,3-triazol-1-yl)-1-oxopropan-2-yl)-2-((S)-2-((S)-2-(3-(4-(2-benzylphenoxy)piperidin-1-yl)propanamido)propanamido)propanamido)propenamide]: on Nluc-H1R [2], binding was put at a Kd of 20 nM and the pKD worked out at 7.70 ± 0.05.

Take `CC(C)[C@H](NC(=O)CCN1CCC(Oc2ccccc2Cc2ccccc2)CC1)C(=O)N[C@@H](CCC(=O)O)C(=O)N[C@@H](CC(N)=O)C(=O)N[C@@H](Cn1cc(COc2ccc(/C=C/C3=[N+]4C(=Cc5ccc(-c6cccs6)n5[B-]4(F)F)C=C3)cc2)nn1)C(N)=O` [Compound 22c, (S)-5-(((S)-4-Amino-1-(((S)-1-amino-3-(4-((4-((E)-2-(5,5-difluoro-7-(thiophen-2-yl)-5H-5λ^4,6λ^4-dipyrrolo[1,2-c:2’,1’-f][1,3,2]diazaborinin-3-yl)vinyl)phenoxy)methyl)-1H-1,2,3-triazol-1-yl)-1-oxopropan-2-yl)amino)-1,4-dioxobutan-2-yl)amino)-4-((S)-2-(3-(4-(2-benzylphenoxy)piperidin-1-yl)propanamido)-3-methylbutanamido)-5-oxopentanoic Acid]: on Nluc-H1R [2], binding was characterised by a dissociation constant (Kd) of 162 nM and the negative-log KD (pKD) was 6.79 ± 0.04.

With `CC(C)[C@H](NC(=O)CCN1CCC(Oc2ccccc2Cc2ccccc2)CC1)C(=O)N[C@@H](CO)C(=O)N[C@@H](CC(N)=O)C(=O)NCCC(=O)N[C@@H](CCCn1cc(COc2ccc(/C=C/C3=[N+]4C(=Cc5ccc(-c6cccs6)n5[B-]4(F)F)C=C3)cc2)nn1)C(N)=O` [Compound 28a, (S)-N1-(3-(((S)-1-Amino-5-(4-((4-((E)-2-(5,5-difluoro-7-(thiophen-2-yl)-5H-5λ^4,6λ^4-dipyrrolo[1,2-c:2’,1’-f][1,3,2]diazaborinin-3-yl)vinyl)phenoxy)methyl)-1H-1,2,3-triazol-1-yl)-1-oxopentan-2-yl)amino)-3-oxopropyl)-2-((S)-2-((S)-2-(3-(4-(2-benzylphenoxy)piperidin-1-yl)propanamido)-3-methylbutanamido)-3-hydroxypropanamido)succinamide], on Nluc-H1R [2], the Kd (as a rule, the concentration at which binding is half-saturated) is 20 nM and the negative-log KD (pKD) was determined as 7.70 ± 0.05.

Take `C[C@H](NC(=O)CCN1CCC(Oc2ccccc2Cc2ccccc2)CC1)C(=O)N[C@@H](C)C(=O)N[C@@H](C)C(=O)NCCC(=O)N[C@@H](CCCn1cc(COc2ccc(/C=C/C3=[N+]4C(=Cc5ccc(-c6cccs6)n5[B-]4(F)F)C=C3)cc2)nn1)C(N)=O` [Compound 28b, (S)-2-((6S,9S,12S)-16-(4-(2-Benzylphenoxy)piperidin-1-yl)-6,9,12-trimethyl-5,8,11,14-tetraoxo-4,7,10,13-tetraazahexadecanamido)-5-(4-((4-((E)-2-(5,5-difluoro-7-(thiophen-2-yl)-5H-5λ^4,6λ^4-dipyrrolo[1,2-c:2’,1’-f][1,3,2]diazaborinin-3-yl)vinyl)phenoxy)methyl)-1H-1,2,3-triazol-1-yl)pentanamide]: at Nluc-H1R [2], the Kd is 14 nM and the pKD stood at 7.86 ± 0.06.

`CC(C)[C@H](NC(=O)CCN(C)CC/C=C1\c2ccccc2COc2ccccc21)C(=O)N[C@@H](CO)C(=O)N[C@@H](CC(N)=O)C(=O)NCCC(=O)N[C@@H](CCCn1cc(COc2ccc(/C=C/C3=[N+]4C(=Cc5ccc(-c6cccs6)n5[B-]4(F)F)C=C3)cc2)nn1)C(N)=O` [Compound 28c, (S)-N1-(3-(((S)-1-Amino-5-(4-((4-((E)-2-(5,5-difluoro-7-(thiophen-2-yl)-5H-5λ^4,6λ^4-dipyrrolo[1,2-c:2’,1’-f][1,3,2]diazaborinin-3-yl)vinyl)phenoxy)methyl)-1H-1,2,3-triazol-1-yl)-1-oxopentan-2-yl)amino)-3-oxopropyl)-2-((S)-2-((S)-2-(3-(((E)-3-(dibenzo[b,e]oxepin-11(6H)-ylidene)propyl)(methyl)amino)propanamido)-3-methylbutanamido)-3-hydroxypropanamido)succinamide]: at Nluc-H1R [2], the Kd is 19 nM and the pKD is 7.72 ± 0.11.

At Nluc-H1R [2], `C[C@H](NC(=O)CCN(C)CC/C=C1\c2ccccc2COc2ccccc21)C(=O)N[C@@H](C)C(=O)N[C@@H](C)C(=O)NCCC(=O)N[C@@H](CCCn1cc(COc2ccc(/C=C/C3=[N+]4C(=Cc5ccc(-c6cccs6)n5[B-]4(F)F)C=C3)cc2)nn1)C(N)=O` [Compound 28d] gave a Kd of 5 nM and a pKD of 8.27 ± 0.05.

With “(S)-N1-((S)-1-Amino-1-oxo-3-phenylpropan-2-yl)-2-((S)-2-((S)-2-(3-(4-(2-benzylphenoxy)piperidin-1-yl)propanamido)-3-methylbutanamido)-3-hydroxypropanamido)succinimide [Compound 11b]”, at Nluc-H1R [1], the affinity corresponds to a Ki of 437 nM, the pKi is 6.36 ± 0.22 and the “pKi/pKD (H1R)” value is given as 7.05.

Consider “(S)-N-((S)-1-(((S)-1-(((S)-1-Amino-1-oxo-3-phenylpropan-2-yl)amino)-3-(4-hydroxyphenyl)-1-oxopropan-2-yl)amino)-3-hydroxy-1-oxopropan-2-yl)-2-(3-(4-(2-benzylphenoxy)piperidin-1-yl)propanamido)-3-methylbutanamide [Compound 11a]”, for which, on Nluc-H1R [1], the Ki came out at 89 nM and the “pKi/pKD (H1R)” value is recorded as 6.36.
